As usually defined, the melting point is the temperature of the solid-liquid transition.

Structures are written as SMILES.

The values below come from US20030216571A1, “Tricyclic compounds” (priority 1999, published 2003).

For one data set, the target named is T1, Leukotriene D4 receptor (Cavia porcellus, UniProt Q2NNR5).
T1 construct: As a receptor sample, a lung cell membrane fraction from guinea pigs was used; from tissue; host or cells: lung membrane fraction of Hartley male guinea pigs
T1 sequence (Q2NNR5 1-340): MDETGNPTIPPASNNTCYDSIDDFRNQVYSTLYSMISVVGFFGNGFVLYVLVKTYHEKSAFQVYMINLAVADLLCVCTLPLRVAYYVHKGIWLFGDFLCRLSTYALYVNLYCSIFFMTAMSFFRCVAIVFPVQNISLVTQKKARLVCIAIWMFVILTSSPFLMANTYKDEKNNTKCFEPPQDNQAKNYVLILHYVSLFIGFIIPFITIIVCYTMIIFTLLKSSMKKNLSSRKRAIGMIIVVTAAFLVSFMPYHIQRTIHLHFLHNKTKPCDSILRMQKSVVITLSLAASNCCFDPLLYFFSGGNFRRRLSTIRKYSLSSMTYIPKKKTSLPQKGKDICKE
In words: Leukotriene D4 receptor binding test. As to conditions: binding inhibition constant (Ki) vs [3H] LTD4 0.2 nM; lung cell membrane fraction from guinea pigs; 25° C. for 30 minutes; read-out: pKi value (converted). How it is done:
Leukotriene D4 Receptor Binding Test
As a receptor sample, a lung cell membrane fraction from guinea pigs was used. Preparation of the membrane fraction was carried out according to the method of Ahn et al. (Eur. J. Pharmacol., 127, 153-155 (1986)). Lungs of Hartley male guinea pigs (400 to 500 g body weight, Nippon SLC Co.) were extracted, and perfused with a physiological saline, and then, adding 10 mM of PIPES, 10 mM of MgCl2 and 10 mM of CaCl2 buffer (pH 7.5) to the lung tissue and the mixture was homogenized. This homogenate was centrifuged at 70,000 xg for 10 minutes to obtain a membrane fraction.
Leukotriene D4 (LTD4) recepter binding test was carried out according to the method of Aharony, et al. (J. Pharmacol. Expl.Ther., 243, 921-926 (1987)). To 0.42 mg of the receptor sample were added 10 mM of PIPES, 10 mM of MgCl2 and 10 mM of CaCl2 buffer (pH 7.5) to make the total amount of 480 μl, and 10 μl of [^3H] LTD4 (NEN Life Science Products Co.) and 10 μl of a Test compound in dimethylsulfoxide were added to the mixture, and the resulting mixture was incubated at 25° C. for 30 minutes. The mixtures thus incubated were filtered through a glass fiber filter (Whatman Co., GF/C) using cell harvester (Brandel Co., M-30R). The filter were washed with 10 mM of Tris. and 100 mM of NaCl buffer (pH 7.5), and 5 ml of a liquid scintillator (NACALAI TESQUE INC., clearsol I), and radioactivity was measured by a liquid scintillation analyzer (Packard Co., 2000CA). When a dissociation constant (Kd) of LTD4 was to be obtained, [^3H] LTD4 with 0.03 to 0.5 nM was used, and 1 μM of non-radioactive LTD4 was added. When a binding inhibition constant (Ki) of the Test compound is to be meaured, [^3H] LTD4 with 0.2 nM was used. Kd and Ki are calculated according to the method of Bennett et al. (Neurotransmitter Receptor Binding, 2nd ed., edited by H. I. Yamamura et al., pp. 61-89, Raven Press (1985)).

Data set [1] relates to Leukotriene D4 induced respiratory constriction. Put plainly: Leukotriene D4 induced respiratory constriction test. It counts as in vivo. As to conditions: p.o. 1 hr before i.v. LTD4; anesthetized Hartley male guinea pigs; respiratory inner pressure. How it is done:
Leukotriene D4 Induced Respiratory Constriction Test
Respiratory constriction was measured by modifying the method of Konzett and Rossler (Arch. Exp. Pathol. Pharmakol., 195, pp. 71-74 (1940)). Hartley male guinea pigs (400 to 500 g body weight, Nippon SLC Co.) were anesthetized with pentobarbital (50 mg/kg, s.c.), and a cannula was inserted into the trachea to carry out artificial ventilation with an artificial ventilator (manufactured by Harvard Co., Model 683). An inner pressure of the respiratory tract was measured by a differential pressure transducer (Nihon Koden, TP-603T) connected to the respiratory cannula and it is used as an index of respiratory constriction.
LTD4 (0.03, 0.06, 0.13, 0.25, 0.5, 1 and 2 μg/kg, Sigma Co.) was intravenously administered from a cannula inserted into the right jugular vein from a low dose with an interval of 5 minutes to cause a respiratory constriction reaction and an increased amount of a respiratory inner pressure was measured. Test compound was suspended in 0.5% sodium carboxymethyl cellulose aqueous solution, and orally administered 1 hour before administration of LTD4. Animals were fasted for 24 hours before administration of the Test compound.
A2=(Dose of Compound administered)/{(ED50 of group to which Compound was added)/(ED50 of control group)−1}

For the compound `O=C([O-])CC1(CSC2c3ccccc3COc3ccc(/C=C/c4ccc5c(F)c(F)c(F)cc5n4)cc32)CC1.[Na+]` (stereo not drawn) [Example 35 (b), Sodium {1-[[2-[(E)-2-(5,6,7-trifluoro-2-quinolinyl)ethenyl]-6,11-dihydrodibenz[b,e]oxepin-11-yl]thiomethyl]cyclopropyl}acetate], the melting point fell in the range of 195 to 198 °C. Moreover, the Ki at Leukotriene D4 receptor is 0.398 nM. For the same compound, the “A2 (dose of Test compound required for shifting two-times the LTD4 dose-reaction curve of control group to higher dose side)” value in data set [1] amounted to 6.6 µg/kg.
Taken in the same sequence, the figures for `O=C([O-])CCSC1c2ccccc2CCc2ccc(/C=C/c3ccc4cc(F)c(F)cc4n3)cc21.[Na+]` (stereo not drawn) [Example 40, Sodium 3-{[3-[(E)-2-(6,7-difluoro-2-quinolinyl)ethenyl]-10,11-dihydro-5H-dibenz[a,d]cyclohepten-5-yl]thio}propionate] were 179 to 182 °C, 0.794 nM and 8.8 µg/kg.
Taken in the same sequence, the figures for `C[C@H](CSC1c2ccccc2COc2ccc(/C=C/c3ccc4cc(F)c(F)cc4n3)cc21)C(=O)[O-].[Na+]` (stereo partly drawn) [Example 43, Sodium 3-{[2-[(E)-2-(6,7-difluoro-2-quinolinyl)ethenyl]-6,11-dihydrodibenz[b,e]oxepin-11-yl]thio}-2-(S)-methyl-propionate] were 193 to 216 °C, 0.126 nM and 1.3 µg/kg.
On the same counts, the results for `C[C@@H](CSC1c2ccccc2COc2ccc(/C=C/c3ccc4cc(F)c(F)cc4n3)cc21)C(=O)[O-].[Na+]` (stereo partly drawn) [Example 44, Sodium 3-{[2-[(E)-2-(6,7-difluoro-2-quinolinyl)ethenyl]-6,11-dihydrodibenz[b,e]oxepin-11-yl]thio}-2-(R)-methylpropionate] are 196 to 220 °C, 0.2 nM and 5 µg/kg.
Consider `O=C([O-])CCSC1c2cc(/C=C/c3ccc4cc(F)c(F)cc4n3)ccc2COc2ccccc21.[Na+]` (stereo not drawn) [Example 54 (b), Sodium 3-{[9-[(E)-2-(6,7-difluoro-2-quinolinyl)ethenyl]-6,11-dihydrodibenz[b,e]oxepin-11-yl]thio}propionate], for which the melting point is over 300 °C. Also, at Leukotriene D4 receptor, the Ki is 0.126 nM. Further, in data set [1], the “A2 (dose of Test compound required for shifting two-times the LTD4 dose-reaction curve of control group to higher dose side)” value was determined as 2.3 µg/kg.
